This assay concerns murine fibroblasts (NIH3T3) over-expressing human IGF-1 receptor. Kind of assay: Test (c): inhibition of IGF-stimulated cell proliferation (BrdU incorporation). The format is cell-based. The settings on record: inhibition of IGF-stimulated proliferation in NIH3T3 over-expressing human IGF-1 receptor. As to the method: The construction of murine fibroblasts (NIH3T3) over-expressing human IGF-1 receptor has been described by Lammers et al (EMBO J, 8, 1369-1375, 1989). These cells show a proliferative response to IGF-I which can be measured by BrdU incorporation into newly synthesised DNA. Compound potency was determined as causing inhibition of the IGF-stimulated proliferation in the following assay:
Compounds are initially dissolved in DMSO to 10 mM, followed by dilutions in DMEM+1% FCS+glutamine to give a range from […] in 1-0.00045% DMSO final concentration in assay well.
Exponentially growing NIH3T3/IGFR cells were harvested and seeded in complete growth medium into a flat-bottomed 96 well tissue culture grade plate (Costar 3525) at 1.2×10^4 cells per well in a volume of 100 μl.
Growth medium was carefully removed from each well using a multi-channel pipette. Wells were carefully rinsed three times with 200 μl with HBSS. 100 μl of starvation medium was added to each well and the plate was re-incubated for 24 hours.
50 μl of a 4× concentrate of test compound was added to appropriate wells. Cells were incubated for 30 minutes with compound alone before the addition of IGF. For cells treated with IGF, an appropriate volume (i.e. 25 μl) of starvation medium was added to make a final volume per well up to 200 μl followed by 25 μl of IGF-1 at 160 ng/ml (to give a final concentration of 20 ng/ml). […] The plate was re-incubated for 20 hours.
The incorporation of BrdU in the cells (after a 4 h incorporation period) was assessed using the BrdU Cell Proliferation Elisa according to the manufacturer's protocol.
In general terms: Dividing cells build labelled thymidine or BrdU into new DNA.
Usually IC50 stands for the concentration that inhibits the measured activity by half. High values mean weaker potency in that assay, low ones greater potency in that assay. In the case of `Cc1cc(Nc2cc(C)[nH]n2)nc(N2CCC[C@H]2c2cc(-c3cccnc3C)no2)n1` [Example 3, S-2-[2-{3-(2-Methylpyrid-3-yl)isoxazol-5-yl}pyrrolidin-1-yl]-6-methyl-4-(5-methyl-1H-pyrazol-3-ylamino)pyrimidine], the IC50 stood at 0.006 µM.
The same measure for `Cc1cc(Nc2cc(C)[nH]n2)nc(N2CCC[C@H]2c2cc(-c3cccnc3C#N)no2)n1` [Example 7, S-2-[2-{3-(2-Cyanopyrid-3-yl)isoxazol-5-yl}pyrrolidin-1-yl]-6-methyl-4-(5-methyl-1H-pyrazol-3-ylamino)pyrimidine]: 0.004 µM.
In the case of `CCOc1nccnc1-c1cc([C@@H]2CCCN2c2nc(C)cc(Nc3cc(C)[nH]n3)n2)on1` [Example 1, S-2-[2-{3-(3-Ethoxypyrazin-2-yl)isoxazol-5-yl}pyrrolidin-1-yl]-6-methyl-4-(5-methyl-1H-pyrazol-3-ylamino)pyrimidine], it took 0.04 µM to reach half-maximal inhibition (IC50).
